Measurements taken from US20090269403A1, “ORAL CONTRACEPTIVE DOSAGE FORMS AND METHODS OF MAKING SUCH DOSAGE FORMS” (priority 2008, published 2009).

What was measured:
[1] = acidic conditions (such as encountered in the gastric environment); cited from earlier work
[2] = water at various pH values; cited from earlier work
[3] = Drug release from enteric-coated drospirenone/ethinylestradiol tablets (USP Type II paddle dissolution); format: physicochemical; conditions: Example 19 enteric-coated tablets, second test run, 75 rpm, 37° C.
Protocol: The rate at which the tablets release the drospirenone and ethinylestradiol was determined. Each tablet was placed in 0.1 N HCl and stirred for 2 hours. After this time, the pH of each of the mixtures containing the tablets was adjusted to pH 6.8 with phosphate buffer and stirred for 4 hours using a USP Type II paddle apparatus at 75 rpm and 37° C. A second test run gave the results listed below in Table 12. A graph of the drug release profiles for the second test run is depicted in FIG. 4.

Average % Drug Release (n = 6), 5 min ([3]; 5 min, in 0.1 N HCl): 0.0%
Average % Drug Release (n = 6), 120 min ([3]; 120 min, end of 2 hours in 0.1 N HCl): 0.0%
Average % Drug Release (n = 6), 130 min ([3]; 130 min, 2 hours 0.1 N HCl, then pH 6.8 phosphate buffer): 29.1%
Average % Drug Release (n = 6), 140 min ([3]; 140 min, 2 hours 0.1 N HCl, then pH 6.8 phosphate buffer): 108.4%
Average % Drug Release (n = 6), 150 min ([3]; 150 min, 2 hours 0.1 N HCl, then pH 6.8 phosphate buffer): 105.4%
Average % Drug Release (n = 6), 165 min ([3]; 165 min, 2 hours 0.1 N HCl, then pH 6.8 phosphate buffer): 105.2%
Average % Drug Release (n = 6), 180 min ([3]; 180 min, 2 hours 0.1 N HCl, then pH 6.8 phosphate buffer): 105.0%
Average % Drug Release (n = 6), 240 min ([3]; 240 min, 2 hours 0.1 N HCl, then pH 6.8 phosphate buffer): 103.9%
Average % Drug Release (n = 6), 300 min ([3]; 300 min, 2 hours 0.1 N HCl, then pH 6.8 phosphate buffer): 102.5%
SMILES: C[C@]12CCC(=O)C=C1[C@@H]1C[C@@H]1[C@H]1[C@@H]3[C@@H]4C[C@@H]4[C@@]4(CCC(=O)O4)[C@@]3(C)CC[C@@H]12 [Drospirenone, 6β,7β,15β, 16β-dimethylene-3-oxo-17a-pregn-4-ene-21,17-carbolactone]
stability under acidic conditions [1]: undergoes isomerization to a form that is inactive
solubility in water [2]: only sparingly soluble in water
